Data set [1] is described as follows: Toxicity of peptide treatment in human patients. It is filed as in vivo. An excerpt:
Toxicity. As to toxicity, the complete schedule of peptide therapeutic agents above gave negative evidence of toxicity.

Data set [2] can be described thus: Six-week intravenous toxicity study in hamsters. It is filed as in vivo. An excerpt: [D-ala^1 ]peptide-T-amide was given twice daily intravenously to hamsters for six weeks. […] Liver enzymes and kidney enzymes were normal after injection.
[3] abbreviates: after injection twice daily intravenously for six weeks.

Consider `C[C@H](N)C(=O)N[C@@H](CO)C(=O)N[C@H](C(=O)N[C@H](C(=O)N[C@H](C(=O)N[C@@H](CC(N)=O)C(=O)N[C@@H](Cc1ccc(O)cc1)C(=O)N[C@H](C(=O)O)[C@@H](C)O)[C@@H](C)O)[C@@H](C)O)[C@@H](C)O` [Peptide T], for which the “toxicity in the liver or kidney” value in data set [1] (In humans) is reported as “no toxicity apparent”. Moreover, the toxicity result in data set [1] (preliminary findings, blood pressure fell when the infusion rate was increased) was “non-toxic with the exception of lowering the blood pressure on one occasion”.
Take `C[C@@H](N)C(=O)N[C@@H](CO)C(=O)N[C@H](C(=O)N[C@H](C(=O)N[C@H](C(=O)N[C@@H](CC(N)=O)C(=O)N[C@@H](Cc1ccc(O)cc1)C(=O)N[C@H](C(N)=O)[C@@H](C)O)[C@@H](C)O)[C@@H](C)O)[C@@H](C)O` [[D-ala^1]peptide-T-amide]: in data set [2] (setting [3]), the Liver enzymes result was “normal” and the kidney enzymes entry is reported as “normal”. For the same compound, the “histologic studies on all organs” value in data set [2] (twice daily intravenously for six weeks) is listed as “no significant difference”.

The values above are taken from patent US5529983A, “Use of small peptides in the treatment of psoriasis” (The United States of America as represented by the …, priority 1995, dated 1996).
